Laboratory results reported in ChEMBL document CHEMBL4364299, “Discovery of a Potent Kelch-Like ECH-Associated Protein 1-Nuclear Factor Erythroid 2-Related Factor 2 (Keap1-Nrf2) Protein-Protein Interaction Inhibitor with Natural Proline Structure as a Cytoprotective Agent against Acetaminophen-Induced Hepatotoxicity” (J Med Chem, 2019).
Active and inactive are the calls of the source. No cut-off for these calls is given here.

Key:
[1] = target: T1, Nuclear factor erythroid 2-related factor 2 (Homo sapiens) (UniProt Q16236); assay: Activation of Nrf2 (unknown origin) stably transfected in human HepG2-ARE-C8 cells assessed as increase in ARE-driven luciferase activity by luciferase reporter gene assay; type: cell-based
T1 sequence (whole entry): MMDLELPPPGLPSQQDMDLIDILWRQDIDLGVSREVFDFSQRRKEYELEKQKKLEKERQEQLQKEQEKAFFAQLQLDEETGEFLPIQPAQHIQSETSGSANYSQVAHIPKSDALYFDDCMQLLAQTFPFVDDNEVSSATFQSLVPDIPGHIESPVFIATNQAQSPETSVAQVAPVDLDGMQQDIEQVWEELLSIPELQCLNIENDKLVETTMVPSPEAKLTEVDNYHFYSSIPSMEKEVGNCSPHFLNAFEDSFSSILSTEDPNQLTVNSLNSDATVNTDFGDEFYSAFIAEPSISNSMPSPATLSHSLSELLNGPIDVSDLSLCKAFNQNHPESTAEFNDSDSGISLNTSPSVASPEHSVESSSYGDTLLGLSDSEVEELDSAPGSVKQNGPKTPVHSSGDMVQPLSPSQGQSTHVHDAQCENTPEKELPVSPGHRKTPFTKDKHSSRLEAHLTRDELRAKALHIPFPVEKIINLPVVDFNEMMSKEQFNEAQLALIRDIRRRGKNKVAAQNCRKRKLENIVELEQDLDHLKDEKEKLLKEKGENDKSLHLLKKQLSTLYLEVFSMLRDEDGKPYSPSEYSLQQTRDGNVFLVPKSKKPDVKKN

[2] = target: T1, Nuclear factor erythroid 2-related factor 2 (Homo sapiens); assay: Activation of Nrf2 in human L02 cells assessed as increase in HO-1 expression at 10 uM measured after 4 to 72 hrs hrs by Western blot analysis; type: cell-based
L02 [3] = assay: Upregulation of GCLM expression in human L02 cells harboring Nrf2 siRNA at 10 uM measured after 10 hrs by Western blot analysis; type: functional, cell-based
[4] = target: T1, Nuclear factor erythroid 2-related factor 2 (Homo sapiens); assay: Activation of Nrf2 in human L02 cells harboring control siRNA assessed as increase in NEFL2L expression at 10 uM measured after 10 hrs by Western blot analysis; type: cell-based
[5] = target: T1, Nuclear factor erythroid 2-related factor 2 (Homo sapiens); assay: Activation of Nrf2 in human L02 cells harboring control siRNA assessed as increase in NQO-1 expression at 10 uM measured after 10 hrs by Western blot analysis; type: cell-based
L02 [6] = assay: Cytoprotective activity against APAP-induced hepatotoxicity in human L02 cells assessed as increase in cell viability at 1 to 20 uM preincubated for 12 hrs followed by APAP addition and measured after 24 hrs by MTT assay; type: functional, cell-based
L02 [7] = assay: Cytoprotective activity against APAP-induced oxidative stress in human L02 cells assessed as decrease in ALP level at 5 to 10 uM preincubated for 12 hrs followed by APAP stimulation and measured after 24 hrs; type: functional, cell-based
Mus musculus [8] = assay: Protection against APAP-induced hepatotoxicity in C57BL/6 mouse assessed as decrease in NQO1 expression in liver at 10 to 40 mg/kg, ip treated 2 hrs prior to 22 hrs starvation followed by APAP challenge and measured after 6 hrs by Dako/Mayer's hematoxylin staining-based immunohistochemical analysis; type: functional, organism-based
Mus musculus [9] = assay: Protection against APAP-induced hepatotoxicity in C57BL/6 mouse assessed as decrease in GCLM expression in liver at 10 to 40 mg/kg, ip treated 2 hrs prior to 22 hrs starvation followed by APAP challenge and measured after 6 hrs by Dako/Mayer's hematoxylin staining-based immunohistochemical analysis; type: functional, organism-based
Mus musculus [10] = assay: Protection against APAP-induced hepatotoxicity in C57BL/6 mouse assessed as decrease in liver hemorrhage at 10 to 40 mg/kg, ip treated 2 hrs prior to 22 hrs starvation followed by APAP challenge and measured after 6 hrs by H and E staining-based light microscopic analysis; type: functional, organism-based
L02 [11] = details: Homo sapiens, 5 to 10 uM
Description: Cytoprotective activity against APAP-induced hepatotoxicity in human L02 cells assessed as inhibition of TNFalpha production at 5 to 10 uM preincubated for 12 hrs followed by APAP stimulation and measured after 24 hrs by ELISA

For `COc1ccc(S(=O)(=O)N(CC(=O)O)c2ccc(N3CCC[C@H]3C(=O)O)c3ccccc23)cc1`, the Activity [1] was “Dose-dependent effect”, the Activity [2] was “Active” and the Activity (L02 [3]) was “inactive”. For the same compound, the Activity [4] was “Active”, the Activity [5] was “Active” and the Activity (L02 [6]) was “Active”. For the same compound, the Activity (L02 [7]) was “Active”, the Activity (Mus musculus [8]) was “Active” and the Activity (Mus musculus [9]) was “Active”. The Activity (Mus musculus [10]) was “Active” and the inhibition (L02 [11]) was “Active”.
